These results are taken from US20230279001A1, “IMIDAZO[1,2-A]PYRIDINE COMPOUNDS FOR THE TREATMENT OF AUTOIMMUNE DISEASE” (Hoffmann-La Roche Inc., priority 2020, published 2023).

In brackets after ≈: the same amount, converted by molar mass.

For the data set, the system named is Balb/c 3T3 mouse fibroblasts. Nature of the data set: 3T3 in vitro phototoxicity assay (Neutral Red uptake). The conditions noted are these: 3T3 fibroblasts. The format is cell-based. The source says: Phototoxicity is defined as a toxic response that is elicited after the first exposure of the skin to certain chemicals and subsequent exposure to light, or that is induced similarly by skin irradiation after systemic administration of a chemical substance. The assay used in this study is designed to detect the phototoxic potential of a chemical by using a simple in vitro cytotoxicity assay with Balb/c 3T3 mouse fibroblasts. The principle of this test is a comparison of the cytotoxicity of a chemical when tested with and without exposure to a non-toxic dose of UVA-light. Cytotoxicity is expressed as a dose dependent reduction of the growth rate of cells as determined by uptake of the vital dye Neutral Red one day after treatment. […]
For this study the Neutral Red uptake (NRU) assay of Borenfreund and Puerner (Borenfreund, E, Puerner J A. Toxicity determined in vitro by morphological alterations and Neutral Red absorption. Toxicology Lett. 1985; 24:119-124) modified according to INVITTOX protocol No 78 (ERGATT/FRAME data bank of in vitro techniques in toxicology. INVITTOX PROTOCOL No 78. 3T3 NRU Phototoxicity Assay. March 1994) has been adapted to examine a possible phototoxic potential of the test item. […]
For each test item the microtiter plates were prepared according to Table 6. […] UV flux was measured with a UV-meter (Dr. Gröbel RM21). […]

The term IC50 denotes the point on the concentration scale where inhibition reaches its midpoint. A lower IC50 goes with inhibition by little substance. For the setting “Factor=IC50(−UV)/IC50(+UV)”, `CCc1nc(N2CCC(N3CC4(CNCCO4)C3)CC2)ccc1-c1cc(C)c2nccn2c1` [Example 14, 2-[1-[6-ethyl-5-(8-methylimidazo[1,2-a]pyridin-6-yl)-2-pyridyl]-4-piperidyl]-5-oxa-2,8-diazaspiro[3.5]nonane] came in with a Phototoxicity factor of 1. This compound also had an IC50 (Mus musculus, BALB/c3T3, light or radiation study, approx. 5 J/cm^2 UVA light, Neutral Red uptake) of 100 µg/mL (≈ 224 µM).
